# Laboratory results published in patent US20140303092A1 (CHIMERIX, INC., priority 2011, published 2014).
# Assay: Study HDP-CDV-201: safety and tolerability (adverse events, laboratory abnormalities, discontinuations)
# Assay type: in vivo, human (adult allogeneic HSCT recipients)
# Procedure: Clinical Studies of HDP-CDV were performed and described in detail in the following Examples. For example, HDP-CDV-201 is a placebo-controlled, dose-escalating trial in HSCT CMV (R+) recipients, evaluating the ability of HDP-CDV to prevent or control CMV infection was carried out. Five cohorts were established in which participants or subjects received either placebo or the HDP-CDV orally, in doses ranging from 40 mg weekly (QW) to 200 mg twice weekly (BIW). Subjects who were post-HSCT were enrolled at the time of engraftment and randomized to HDP-CDV or placebo (3 to 1 ratio) and received blinded therapy until approximately 100 day post-transplantation. HDP-CDV doses were 40 mg QW, 100 mg QW, 200 mg QW, 200 mg BIW and 100 mg BIW. Escalation to the next dose was decided by the data monitoring committee after review of the safety data from the previous Cohort. Subjects who developed CMV disease or CMV infection requiring pre-emptive therapy with local standard of care were discontinued from blinded therapy and followed for 4 weeks. Subjects who completed treatment with blinded therapy were followed for 8 weeks post-therapy.
# Data from Study HDP-CDV-201 also provided characterization of the safety and tolerability profile of HDP-CDV when administered for the prevention or control of CMV infection in high risk (R^+) post-HSCT adult subjects.
# The Safety population (SAFETY) included all randomized subjects who took at least one dose of study treatment. This population was used to summarize safety outcomes based on the treatment actually received, in cases where a subject was treated contrary to the randomization schedule.
# The safety and tolerability profile of HDP-CDV, including subject demographics and Baseline characteristics; the AE profile; and laboratory abnormalities of interest were analyzed in the cohorts followed in this investigation.
# Subjects completing the treatment period received a full course of study medication; those completing the entire study attended visits through 8 weeks of follow up. Subjects who discontinued treatment may have done so for protocol specified reasons (e.g. development of clinically significant CMV infection requiring preemptive treatment with excluded anti-CMV medications) or for other reasons (e.g., withdrawal, adverse events, loss to follow-up). The disposition of subjects in Study HDP-CDV-201 during the double-blind, placebo-controlled treatment period (through Week 11) is listed by dosing Cohort in TABLE 23.
# Adverse events were examined by severity to ensure that all safety signals were identified in this study population. Because of the frequency of events in HSCT recipients, particular attention was given to evaluation of Grade 3 […], 4 (severe), and 5 (fatal) adverse events.
# Only those preferred terms for which at least one Grade 3 or higher event was experienced in any treatment group are listed. Cytomegalovirus-related AEs are excluded from this analysis.
# HDP-CDV is a lipid conjugate of CDV. Because CDV is known to have adverse effects on renal function and bone marrow, decreased GFR and persistent neutropenia were identified as AEs of special interest. Key renal and hematological (TABLE 30) laboratory parameters were measured and listed below by Study HDP-CDV-201 treatment groups. TABLE 30 includes abnormal levels of serum creatinine, neutrophils, platelets, WBCs, and hemoglobin and includes data at Screening and during the treatment period.
# A common metric for unit based dosing of medications is by weight (mg/kg). When the distribution of weights was examined for all subjects participating in the study, the median was 78 kg and the lower 25th percentile weight was approximately 65 kg, which translates to a cut-off of ˜3 mg/kg for a 200 mg total weekly dose. Based upon this approach, a cut-off of 3 mg/kg was used to assess the frequency of diarrhea and associated GI AEs reported for the subjects in Cohorts 3 or 4a (TABLE 40).
compound,measurement,setting,value
CCCCCCCCCCCCCCCCOCCCOP(=O)(O)COC(CO)Cn1ccc(N)nc1=O (stereo not drawn) [HDP-CDV],"TEAE Staphylococcal Bacteremia, Grade 4",200 mg BIW,0
same,"TEAE Staphylococcal Bacteremia, Grade 5",200 mg BIW,0
same,"TEAE Thrombocytopenia, Frequency",200 mg BIW,5 (16.7%)
same,"TEAE Thrombocytopenia, Grade 2",200 mg BIW,2 (6.7%)
same,"TEAE Thrombocytopenia, Grade 3",200 mg BIW,0
same,"TEAE Thrombocytopenia, Grade 4",200 mg BIW,3 (10.0%)
same,"TEAE Thrombocytopenia, Grade 5",200 mg BIW,0
same,"TEAE Vomiting, Frequency",200 mg BIW,8 (26.7%)
same,"TEAE Vomiting, Grade 2",200 mg BIW,4 (13.3%)
same,"TEAE Vomiting, Grade 3",200 mg BIW,0
same,"TEAE Vomiting, Grade 4",200 mg BIW,0
same,"TEAE Vomiting, Grade 5",200 mg BIW,0
same,subjects requiring treatment with steroids during the study,200 mg BIW,83%
same,proportion of subjects with Grade 3 or higher ALT (>5×ULN),200 mg BIW (8 of 30),27.6%
same,dose limiting toxicity,200 mg BIW not tolerable,Diarrhea
same,Subjects Reporting Diarrhea as an AE,"200 mg BIW, n = 30",21 (70.0%)
same,Discontinuation: Death,"200 mg BIW, active treatment period",3 (10%) Subject n (%)
same,Discontinuation: Adverse event,"200 mg BIW, active treatment period through Week 11",13 (43.3%) Subject n (%)
same,"TEAE ALT increased, Frequency",200 mg QW,2 (5.1%)
same,"TEAE ALT increased, Grade 2",200 mg QW,1 (2.6%)
same,"TEAE ALT increased, Grade 3",200 mg QW,1 (2.6%)
same,"TEAE ALT increased, Grade 4",200 mg QW,0
same,"TEAE ALT increased, Grade 5",200 mg QW,0
same,"TEAE AML, Recurrent, Frequency",200 mg QW,0
same,"TEAE AML, Recurrent, Grade 2",200 mg QW,0
same,"TEAE AML, Recurrent, Grade 3",200 mg QW,0
same,"TEAE AML, Recurrent, Grade 4",200 mg QW,0
same,"TEAE AML, Recurrent, Grade 5",200 mg QW,0
same,"TEAE AST increased, Frequency",200 mg QW,1 (2.6%)
same,"TEAE AST increased, Grade 2",200 mg QW,1 (2.6%)
same,"TEAE AST increased, Grade 3",200 mg QW,0
same,"TEAE AST increased, Grade 4",200 mg QW,0
same,"TEAE AST increased, Grade 5",200 mg QW,0
same,"TEAE Abdominal pain, Frequency",200 mg QW,5 (12.8%)
same,"TEAE Abdominal pain, Grade 2",200 mg QW,1 (2.6%)
same,"TEAE Abdominal pain, Grade 3",200 mg QW,1 (2.6%)
same,"TEAE Abdominal pain, Grade 4",200 mg QW,0
same,"TEAE Abdominal pain, Grade 5",200 mg QW,0
same,"TEAE Acute GVHD, Frequency",200 mg QW,13 (33.3%)
same,"TEAE Acute GVHD, Grade 2",200 mg QW,5 (12.8%)
same,"TEAE Acute GVHD, Grade 3",200 mg QW,4 (10.3%)
same,"TEAE Acute GVHD, Grade 4",200 mg QW,2 (5.1%)
same,"TEAE Acute GVHD, Grade 5",200 mg QW,1(2.6%)
same,"TEAE Arthralgias, Frequency",200 mg QW,1 (2.6%)
same,"TEAE Arthralgias, Grade 2",200 mg QW,0
same,"TEAE Arthralgias, Grade 3",200 mg QW,0
same,"TEAE Arthralgias, Grade 4",200 mg QW,0
same,"TEAE Arthralgias, Grade 5",200 mg QW,0
same,"TEAE Back Pain, Frequency",200 mg QW,2 (5.1%)
same,"TEAE Back Pain, Grade 2",200 mg QW,2 (5.1%)
same,"TEAE Back Pain, Grade 3",200 mg QW,0
same,"TEAE Back Pain, Grade 4",200 mg QW,0
same,"TEAE Back Pain, Grade 5",200 mg QW,0
same,"TEAE Decreased appetite, Frequency",200 mg QW,3 (7.7%)
same,"TEAE Decreased appetite, Grade 2",200 mg QW,1 (2.6%)
same,"TEAE Decreased appetite, Grade 3",200 mg QW,0
same,"TEAE Decreased appetite, Grade 4",200 mg QW,0
same,"TEAE Decreased appetite, Grade 5",200 mg QW,0
same,"TEAE Diarrhea, Frequency",200 mg QW,13 (33.3%)
same,"TEAE Diarrhea, Grade 2",200 mg QW,5 (12.8%)
same,"TEAE Diarrhea, Grade 3",200 mg QW,2 (5.1%)
same,"TEAE Diarrhea, Grade 4",200 mg QW,0
same,"TEAE Diarrhea, Grade 5",200 mg QW,0
same,"TEAE Fatigue, Frequency",200 mg QW,5 (12.8%)
same,"TEAE Fatigue, Grade 2",200 mg QW,0
same,"TEAE Fatigue, Grade 3",200 mg QW,1 (2.6%)
same,"TEAE Fatigue, Grade 4",200 mg QW,0
same,"TEAE Fatigue, Grade 5",200 mg QW,0
same,"TEAE GGT Increased, Frequency",200 mg QW,0
same,"TEAE GGT Increased, Grade 2",200 mg QW,0
same,"TEAE GGT Increased, Grade 3",200 mg QW,0
same,"TEAE GGT Increased, Grade 4",200 mg QW,0
same,"TEAE GGT Increased, Grade 5",200 mg QW,0
same,"TEAE Generalized oedema, Frequency",200 mg QW,0
same,"TEAE Generalized oedema, Grade 2",200 mg QW,0
same,"TEAE Generalized oedema, Grade 3",200 mg QW,0
same,"TEAE Generalized oedema, Grade 4",200 mg QW,0
same,"TEAE Generalized oedema, Grade 5",200 mg QW,0
same,"TEAE Hyperbilirubinaemia, Frequency",200 mg QW,3 (7.7%)
same,"TEAE Hyperbilirubinaemia, Grade 2",200 mg QW,1 (2.6%)
same,"TEAE Hyperbilirubinaemia, Grade 3",200 mg QW,0
same,"TEAE Hyperbilirubinaemia, Grade 4",200 mg QW,1 (2.6%)
same,"TEAE Hyperbilirubinaemia, Grade 5",200 mg QW,0
same,"TEAE Hyperglycaemia, Frequency",200 mg QW,1 (2.6%)
same,"TEAE Hyperglycaemia, Grade 2",200 mg QW,0
same,"TEAE Hyperglycaemia, Grade 3",200 mg QW,1 (2.6%)
same,"TEAE Hyperglycaemia, Grade 4",200 mg QW,0
same,"TEAE Hyperglycaemia, Grade 5",200 mg QW,0
same,"TEAE Hyperkalemia, Frequency",200 mg QW,1 (2.6%)
same,"TEAE Hyperkalemia, Grade 2",200 mg QW,0
same,"TEAE Hyperkalemia, Grade 3",200 mg QW,0
same,"TEAE Hyperkalemia, Grade 4",200 mg QW,0
same,"TEAE Hyperkalemia, Grade 5",200 mg QW,0
same,"TEAE Hypocalcaemia, Frequency",200 mg QW,0
same,"TEAE Hypocalcaemia, Grade 2",200 mg QW,0
same,"TEAE Hypocalcaemia, Grade 3",200 mg QW,0
same,"TEAE Hypocalcaemia, Grade 4",200 mg QW,0
same,"TEAE Hypocalcaemia, Grade 5",200 mg QW,0
same,"TEAE Hypokalaemia, Frequency",200 mg QW,5 (12.8%)
same,"TEAE Hypokalaemia, Grade 2",200 mg QW,2 (5.1%)
same,"TEAE Hypokalaemia, Grade 3",200 mg QW,0
same,"TEAE Hypokalaemia, Grade 4",200 mg QW,0
same,"TEAE Hypokalaemia, Grade 5",200 mg QW,0
same,"TEAE Hyponatraemia, Frequency",200 mg QW,7 (17.9%)
same,"TEAE Hyponatraemia, Grade 2",200 mg QW,2 (5.1%)
same,"TEAE Hyponatraemia, Grade 3",200 mg QW,2 (5.1%)
same,"TEAE Hyponatraemia, Grade 4",200 mg QW,0
same,"TEAE Hyponatraemia, Grade 5",200 mg QW,0
same,"TEAE LFT Abnormal, Frequency",200 mg QW,2 (5.1%)
same,"TEAE LFT Abnormal, Grade 2",200 mg QW,0
same,"TEAE LFT Abnormal, Grade 3",200 mg QW,0
